Assay results published in paper PMC8587750, “Structural Optimization and Biological Activity of Pyrazole Derivatives: Virtual Computational Analysis, Recovery Assay and 3D Culture Model as Potential Predictive Tools of Effectiveness against Trypanosoma cruzi” (Molecules, 2021).
Where two headings read alike, the source gives them in different places.

Tests used:
[1] = system: intracellular amastigotes of T. cruzi; assay: Activity against intracellular amastigotes in infected Vero cells (Dm28c-Luc, 72 h); assay type: cell-based, Trypanosoma cruzi; conditions: for IC50 / IC90: Trypanosoma cruzi; for IC50: Vero; for Intracellular Amastigotes SI: CC50 of Vero cells/IC50 of intracellular amastigote; for IC90: read-out: Trypanocidal Activity Intracellular Amastigotes IC90
Excerpt: (§1) T. cruzi Dm28c clone genetically modified to express luciferase, kindly provided by Dr. Cristina Henriques from Oswaldo Cruz Institute–Fiocruz, was used in the drug assays. Trypomastigotes were harvested from T. cruzi-infected Vero cultures supernatants at 4th days post-infection (dpi) and used in the phenotypic screening assay. For intracellular amastigotes assays, Vero cells (2D and 3D cultures) were infected at a ratio of 10:1 parasites/host cells.
The effect of the pyrazole derivatives against intracellular amastigotes was also evaluated after 72 h treatment (37 °C) with compound concentrations ranging from 0.04–100 µM [13]. Parasite viability, measured by luminescent signal, was determined after luciferin (300 µg/mL) addition. IC50 and IC90 values were calculated by linear regression. Selectivity index (SI) was calculated as the ratio of the CC50 to IC50 values. The non-toxic concentration of DMSO (less than 1% v/v) was used in all assays. A minimum of three independent assays was carried out in duplicate.

[2] = system: trypomastigote forms of T. cruzi; assay: Phenotypic screening against T. cruzi trypomastigotes (Dm28c-Luc, luciferase viability, 24 h); assay type: cell-based, Trypanosoma cruzi; conditions: for IC50 / IC90: Trypanosoma cruzi, Dm28c-Luc, 24 h; for IC50: read-out: Trypanocidal Activity Trypomastigotes IC50; for Trypomastigotes SI: CC50 of Vero cells/IC50 of trypomastigote; for IC90: read-out: Trypanocidal Activity Trypomastigotes IC90
Excerpt: as §1
The phenotypic compound screening was performed using transgenic T. cruzi parasites expressing the firefly luciferase (Dm28c-Luc). Trypomastigotes (1 × 10^6 parasites/well) were treated for 24 h at 37 °C with the pyrazole derivatives and Bz (0.04–100 μM), followed by incubation with luciferin substrate (300 µg/mL) to determine parasite viability through luciferase activity. The concentration that reduces the number of viable parasites by 50% (IC50) or 90% (IC90) was calculated by linear regression. The luminescent signal was read on a Glomax-Multi Detection plate reader (Promega Corporation, Madison, WI, EUA)). At least three independent assays were performed in duplicate.

[3] = Cytotoxicity in vitro assay (ATP, CellTiter Glo, 72 h); assay type: cell-based; conditions: African green monkey, Vero cells
Procedure: Vero cells, obtained from the Rio de Janeiro Cell Bank (BCRJ code 0245), were cultured in RPMI-1640 supplemented with 10% fetal bovine serum (FBS) and 1 mM L-glutamine, as previously described. Vero cells were used for drug screening assays and to obtain trypomastigote forms of T. cruzi.
Vero cells were used as a cellular model to analyze the toxic effect of pyrazole derivatives, series 1(a–l), 2(a–l), 3(a–n), 4(a–c), and 5(a–c), and Benznidazole (Bz) on mammalian cells. Briefly, the cells, plated on 96-well white opaque microplate (1.5 × 10^4 cells/well), were treated for 72 h at 37 °C with a wide range concentration (500–1.95 µM) of the pyrazole derivatives. The cell viability was determined by measuring ATP levels using the CellTiter Glo Kit (Promega Corporation, Madison, WI, EUA) followed by reading the luminescent signal on the Glomax-Multi Detection plate reader (Promega Corporation, Madison, WI, EUA)). All treatments and controls were performed at a low concentration of DMSO (≤1%). The 50% cytotoxic concentration values (CC50; the concentration of the compound that reduces 50% of the cell viability) were estimated by linear regression analysis. Three independent assays were performed in duplicate.

[4] = negative log of the IC50 value in molar, read-out: Intracellular Amastigotes pIC50 (converted)
[5] = 72 h, Vero cells infected with Dm28c-Luc, 72 h, read-out: Trypanocidal Activity Intracellular Amastigotes IC50
[6] = Vero cells infected with Dm28c-Luc, 72 h

Structure (SMILES)	melting point	IC50 [1, 4]	further results
NC(=O)c1cnn(-c2ccccc2)c1 [Compound 1a, 1-phenyl-1H-pyrazole-4-carboxamide]	224 to 225 °C	> 50.1 µM	
NC(=O)c1cnn(-c2cccc(Cl)c2)c1 [Compound 1b, 1-(3-chlorophenyl)-1H-pyrazole-4-carboxamide]	202 to 204 °C	> 50.1 µM	
NC(=O)c1cnn(-c2ccc(Cl)cc2Cl)c1 [Compound 1c, 1-(2,4-dichlorophenyl)-1H-pyrazole-4-carboxamide]	184 to 186 °C	> 50.1 µM	
NC(=O)c1cnn(-c2cc(Cl)cc(Cl)c2)c1 [Compound 1d, 1-(3,5-dichlorophenyl)-1H-pyrazole-4-carboxamide]	240 to 242 °C	> 50.1 µM	
NC(=O)c1cnn(-c2ccc(Cl)c(Cl)c2)c1 [Compound 1e, 1-(3,4-dichlorophenyl)-1H-pyrazole-4-carboxamide]	190 to 192 °C	> 50.1 µM	
NC(=O)c1cnn(-c2ccc(Cl)cc2)c1 [Compound 1f, 1-(4-chlorophenyl)-1H-pyrazole-4-carboxamide]	234 to 236 °C	> 50.1 µM	
NC(=O)c1cnn(-c2ccc(F)cc2)c1 [Compound 1g, 1-(4-fluorophenyl)-1H-pyrazole-4-carboxamide]	244 to 246 °C	> 50.1 µM	
NC(=O)c1cnn(-c2cccc(F)c2)c1 [Compound 1h, 1-(3-fluorophenyl)-1H-pyrazole-4-carboxamide]	206 to 208 °C	> 50.1 µM	
NC(=O)c1cnn(-c2ccc(Br)cc2)c1 [Compound 1i, 1-(4-bromophenyl)-1H-pyrazole-4-carboxamide]	242 to 244 °C	> 50.1 µM	
NC(=O)c1cnn(-c2cccc(Br)c2)c1 [Compound 1j, 1-(3-bromophenyl)-1H-pyrazole-4-carboxamide]	212 to 214 °C	> 50.1 µM	
COc1ccc(-n2cc(C(N)=O)cn2)cc1 [Compound 1k, 1-(4-methoxyphenyl)-1H-pyrazole-4-carboxamide]	220 to 222 °C	> 50.1 µM	
NC(=O)c1cnn(-c2cccc(Cl)c2Cl)c1 [Compound 1l, 1-(2,3-dichlorophenyl)-1H-pyrazole-4-carboxamide]	220 to 224 °C	> 50.1 µM	
NC(=O)c1cnn(-c2cccc(Cl)c2)c1N [Compound 2b, 5-amino-1-(3-chlorophenyl)-1H-pyrazole-4-carboxamide]	168 to 170 °C	> 70.8 µM	
NC(=O)c1cnn(-c2ccc(Cl)cc2Cl)c1N [Compound 2c, 5-amino-1-(2,4-dichlorophenyl)-1H-pyrazole-4-carboxamide]	212 to 214 °C	> 70.8 µM	
NC(=O)c1cnn(-c2cc(Cl)cc(Cl)c2)c1N [Compound 2d, 5-amino-1-(3,5-dichlorophenyl)-1H-pyrazole-4-carboxamide]	184 to 186 °C	> 70.8 µM	
NC(=O)c1cnn(-c2ccc(Cl)c(Cl)c2)c1N [Compound 2e, 5-amino-1-(3,4-dichlorophenyl)-1H-pyrazole-4-carboxamide]	204 to 212 °C	> 70.8 µM	

Structure (SMILES)	melting point	IC50 [1, 4]	further results
NC(=O)c1cnn(-c2ccc(Cl)cc2)c1N [Compound 2f, 5-amino-1-(4-chlorophenyl)-1H-pyrazole-4-carboxamide]	196 to 200 °C	> 70.8 µM	
NC(=O)c1cnn(-c2ccc(F)cc2)c1N [Compound 2g, 5-amino-1-(4-fluorophenyl)-1H-pyrazole-4-carboxamide]	232 to 234 °C	> 70.8 µM	
NC(=O)c1cnn(-c2cccc(F)c2)c1N [Compound 2h, 5-amino-1-(3-fluorophenyl)-1H-pyrazole-4-carboxamide]	178 to 182 °C	> 70.8 µM	
NC(=O)c1cnn(-c2ccc(Br)cc2)c1N [Compound 2i, 5-amino-1-(4-bromophenyl)-1H-pyrazole-4-carboxamide]	138 to 142 °C	> 70.8 µM	
NC(=O)c1cnn(-c2cccc(Br)c2)c1N [Compound 2j, 5-amino-1-(3-bromophenyl)-1H-pyrazole-4-carboxamide]	138 to 142 °C	> 70.8 µM	
COc1ccc(-n2ncc(C(N)=O)c2N)cc1 [Compound 2k, 5-amino-1-(4-methoxyphenyl)-1H-pyrazole-4-carboxamide]	214 to 218 °C	> 70.8 µM	
NC(=O)c1cnn(-c2cccc(Cl)c2Cl)c1N [Compound 2l, 5-amino-1-(2,3-dichlorophenyl)-1H-pyrazole-4-carboxamide]	160 to 164 °C	> 70.8 µM	
c1ccc(-n2cc(C3=NCCN3)cn2)cc1 [Compound 3a, 4-(4,5-dihydro-1H-imidazol-2-yl)-1-phenyl-1H-pyrazole]	149 to 150 °C	93.3 µM	Intracellular Amastigotes SI [1]: >5.44; IC50 [1, 5]: 91.8 ± 2.03 µM; IC90 [1, 6]: > 100 µM; IC50 [2]: > 100 µM; CC50 at 72 h [3]: > 500 µM
Clc1cccc(-n2cc(C3=NCCN3)cn2)c1 [Compound 3b, 1-(3-chlorophenyl)-4-(4,5-dihydro-1H-imidazol-2-yl)-1H-pyrazole]	120 to 124 °C	28.2 µM	fold drop in activity on moving Cl or Br to the meta position ([1]; 3b compared to 3g, 3k compared to 3j): five; Intracellular Amastigotes SI [1]: 9.48; IC50 [1, 5]: 28.2 ± 1.81 µM; IC90 [1, 6]: 86.6 ± 5.55 µM; IC50 [2]: > 100 µM; CC50 at 72 h [3]: 267 ± 28.1 µM
Clc1ccc(-n2cc(C3=NCCN3)cn2)c(Cl)c1 [Compound 3c, 1-(2,4-dichlorophenyl)-4-(4,5-dihydro-1H-imidazol-2-yl)-1H-pyrazole]	110 to 111 °C	56.2 µM	Intracellular Amastigotes SI [1]: 7.21; IC50 [1, 5]: 56.6 ± 2.52 µM; IC90 [1, 6]: 94.6 ± 3.61 µM; IC50 [2]: > 100 µM; CC50 at 72 h [3]: 409 ± 16.2 µM
Clc1cc(Cl)cc(-n2cc(C3=NCCN3)cn2)c1 [Compound 3d, 1-(3,5-dichlorophenyl)-4-(4,5-dihydro-1H-imidazol-2-yl)-1H-pyrazole]	83 to 84 °C	55 µM	Intracellular Amastigotes SI [1]: 6.99; IC50 [1, 5]: 54.9 ± 7.12 µM; IC90 [1, 6]: > 100 µM; Trypomastigotes SI [2]: 5.78; IC50 [2]: 66.3 ± 5.53 µM; IC90 [2]: 93.5 ± 1.56 µM; CC50 at 72 h [3]: 384 ± 23 µM
Clc1ccc(-n2cc(C3=NCCN3)cn2)cc1Cl [Compound 3e, 1-(3,4-dichlorophenyl)-4-(4,5-dihydro-1H-imidazol-2-yl)-1H-pyrazole]	185 to 186 °C	75.9 µM	Intracellular Amastigotes SI [1]: 6.26; IC50 [1, 5]: 76.5 ± 8.79 µM; IC90 [1, 6]: > 100 µM; Trypomastigotes SI [2]: 7.39; IC50 [2]: 64.9 ± 2.85 µM; IC90 [2]: 93.74 ± 0.73 µM; CC50 at 72 h [3]: 480 ± 21.7 µM
Clc1cccc(Cl)c1-n1cc(C2=NCCN2)cn1 [Compound 3f, 1-(2,6-dichlorophenyl)-4-(4,5-dihydro-1H-imidazol-2-yl)-1H-pyrazole]	221 to 223 °C	81.3 µM	Intracellular Amastigotes SI [1]: >6; IC50 [1, 5]: 82 ± 2.52 µM; IC90 [1, 6]: > 100 µM; IC50 [2]: > 100 µM; CC50 at 72 h [3]: > 500 µM
Fc1ccc(-n2cc(C3=NCCN3)cn2)cc1 [Compound 3h, 4-(4,5-dihydro-1H-imidazol-2-yl)-1-(4-fluorophenyl)-1H-pyrazole]	210 to 212 °C	64.6 µM	IC50 [1, 5]: 64.5 ± 3.81 µM; IC90 [1, 6]: > 100 µM; IC50 [2]: > 100 µM; CC50 at 72 h [3]: > 500 µM
Fc1cccc(-n2cc(C3=NCCN3)cn2)c1 [Compound 3i, 4-(4,5-dihydro-1H-imidazol-2-yl)-1-(3-fluorophenyl)-1H-pyrazole]	164 to 167 °C	64.6 µM	IC50 [1, 5]: 64.1 ± 7.09 µM; IC90 [1, 6]: > 100 µM; IC50 [2]: > 100 µM; CC50 at 72 h [3]: > 500 µM
